Reference: patent publication US20230099822A1, “MR1 LIGANDS AND PHARMACEUTICAL COMPOSITIONS FOR IMMUNOMODULATION” (UNIVERSITÄT BASEL, priority 2020, published 2023)
Counter-ions that a name gives are not always drawn.

Tests used:
MR1T cell clones [1] = assay: MR1T cell activation assay with drug-treated THP-1 cells; assay type: cell-based, human; settings: for stimulation of TC5A87 MR1T clone (IFN-γ): THP-1 cells incubated 18 h with drug (FIG. 7d, f, g); for T cell response in MR1T cell clones: THP-1 cells treated with drug; for reactivity of DGB129 clone to drug-treated THP-1 cells: drug alone, 25 μM EHNA, 10 μM MPA, 20 μM BBG (FIG. 9H)
Experimental: (§1) MR1T cells (5×10^4/well unless otherwise indicated) were co-cultured with the indicated APCs (10^5 cells per well unless otherwise indicated) for 18 h in 120 μL volume in triplicate. In some experiments, anti-MR1 mAbs (clone 26.5, purified and endotoxin-free mouse IgG2a, (Lepore et al., 2014)) or mouse IgG2a isotype control mAbs (LEAF, Biolegend, Cat #401504) (both at 30 μg/mL) were added and incubated for 30 min at 37° C. prior to the addition of T cells.
(§2) In experiments with mycophenolic acid (10 μM), EHNA (25 μM), S-p-bromobenzylglutathione cyclopentyl diester (BBG, 20 μM) (all from Sigma-Aldrich), THP-1 cells (1×10^6/mL) were treated with the indicated concentrations of drugs in complete medium at 37° C. for 18 h before being washed twice with PBS, counted and used for T-cell activation. In experiments where THP-1 cells (1×10^6/mL) were treated with doxorubicin (75 nM) and paclitaxel (5 μM) (both from Sigma-Aldrich), the cells were incubated at 37° C. for 18 h before being washed twice with PBS, counted, and incubated for 2 h with vehicle or 150 μM dAdo and 150 μM guanosine (Sigma-Aldrich) prior to T-cell addition. In experiments where fixed A375-MR1 cells were used to activate MR1T cells, APCs (4×10^5/mL) were treated with apocynin (APO, 100 μM), L-glutathione reduced (GSH, 4 mM), N-acetyl cysteine (NAC, 4 mM), L-buthionine-sulfoximine (BSO, 400 μM) mercaptosuccinic acid (MSA, 3.3 μM), ML-210 (6 μM) or 1S,3R-RSL3 (RSL3, 1 μM), hydralazine hydrochloride (100 μM) or aminoguanidine hemisulfate salt (5 mM) for 18 h at 37° C. before being washed twice with PBS, fixed with glutaraldehyde, counted and used for MR1T cell stimulation.
(§3) The following human cytokines were assessed by ELISA using specific mAbs: GM-CSF (purified clone BVD2-23B6 and biotinylated clone BVD2-21C11, Biolegend Cat #502202 and 502304, respectively), IFN-γ (purified clone MD-1 and biotinylated clone 4S.B3, Biolegend Cat #507502 and 502504, respectively), IL-13 (purified clone JES10-5A2 and biotinylated clone SB126d, SouthernBiotech Cat #10125-01 and 15930-08, respectively).

MR1T cell clones [2] = assay: MR1T cell activation assay with THP-1 cells incubated with compounds (cytokine ELISA); assay type: cell-based, human
Experimental: MR1T cells (5×10^4/well unless otherwise indicated) were co-cultured with the indicated APCs (10^5 cells per well unless otherwise indicated) for 18 h in 120 μL volume in triplicate.
When nucleobases, nucleosides or nucleotides (all 250 μM) and synthetic compounds M3ADE, OPdA, M1G or OPdC were used to stimulate T cells, the THP-1 cells (10^5/well) were cultured 2 h with the indicated molecules or medium only, prior to T-cell addition. When a single concentration of synthetic antigens was used, 100 μM OPdA, 100 μM OPdC and 13 μM M1G were used for all clones, while 100 μM M3ADE was used for all clones except DGB129, AC1A4, AC1B76 and AVA46 for which 1 μM was used.

[3] = target: T1, MR1 surface expression on THP-1 MR1 cells (Homo sapiens, UniProt Q95460); assay: Cell surface MR1 modulation on APCs (flow cytometry, anti-MR1 mAb 26.5); assay type: cell-based; settings: THP-1 MR1 cells, 3 h at 37° C., 3 doses each
T1 construct: expressed in transfected cells; host or cells: THP-1 (ATCC TIB-202) stably expressing MR1 (THP1-MR1)
Experimental: […] […] For each condition, net MFI was calculated subtracting isotype MFI from anti-MR1 MFI and fold change of cells treated with synthetic molecules over cells treated with vehicle was calculated.

MR1T cell clones [4] = assay: Competition assay for stimulation of MR1T cell clones; assay type: cell-based, human; settings: APCs with compound 2 h (3 doses), then antigen at optimal concentration, cytokine ELISA
Experimental: As positive control for competition with antigens, Ac-6-FP was used (100 μM). Supernatants were collected after 24 h for cytokine analysis measured by ELISA.

MR1T cell clones [5] = assay: MR1T cell activation assay with treated and fixed A375-MR1 cells; assay type: cell-based, human; settings: 18 h treatment before fixation; concentrations (FIG. 10D-L)
Experimental: as §1, §2, §3

MAIT clone MRC25 = assay: Control stimulation of MAIT clone MRC25; assay type: cell-based, human; settings: A375-MR1 cells treated with carbonyl scavengers (FIG. 16E)
Experimental: In some experiments, MAIT cells were stimulated by APCs pulsed 3 h with 5-OP-RU as previously described or with 30 μM 6,7-dimethyl-8-ribityllumazine (Cayman Chemical Cat #23370).

T1 sequence (Q95460 23-341): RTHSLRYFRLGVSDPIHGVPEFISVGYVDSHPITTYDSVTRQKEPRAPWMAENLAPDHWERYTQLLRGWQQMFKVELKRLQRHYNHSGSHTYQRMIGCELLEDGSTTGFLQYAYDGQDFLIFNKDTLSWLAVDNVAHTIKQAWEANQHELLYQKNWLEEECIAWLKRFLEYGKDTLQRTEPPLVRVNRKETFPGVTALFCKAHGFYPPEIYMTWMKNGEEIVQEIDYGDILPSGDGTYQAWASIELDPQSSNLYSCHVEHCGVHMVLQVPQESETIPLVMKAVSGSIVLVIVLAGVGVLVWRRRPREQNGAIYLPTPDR
T1 sequence (P61769 21-119 partner): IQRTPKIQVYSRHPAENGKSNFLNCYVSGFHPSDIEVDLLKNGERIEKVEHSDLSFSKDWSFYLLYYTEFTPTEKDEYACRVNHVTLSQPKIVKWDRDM

Row | Structure (SMILES) | MRI upregulation [3] | Competition (MR1T cell clones [4]) | MR1T-cell stimulation (IFN-γ) by treated, fixed A375-MR1 cells (MR1T cell clones [5]) | further results
1 | CCCCCC[C@@H]([C@@H](C)O)n1cnc2c(N)ncnc21 (racemic) [EHNA, erythro-9-(2-hydroxy-3-nonyl) adenine] |  |  |  | stimulation of TC5A87 MR1T clone (IFN-γ) (MR1T cell clones [1]): induces the stimulation; T cell response in MR1T cell clones (MR1T cell clones [1]): induced a strong stimulation; reactivity of DGB129 clone to drug-treated THP-1 cells (MR1T cell clones [1]): reacted
2 | NC(CCC(=O)NC(CSCc1ccc(Br)cc1)C(=O)NCC(=O)OC1CCCC1)C(=O)OC1CCCC1 (stereo not drawn) [BBG, S-p-bromobenzylglutathione cyclopentyl diester] |  |  |  | IFN-γ release of both MR1T cell clones to THP-1 cells (MR1T cell clones [1]; BBG in combination with each of MPA and EHNA, clones TC5A87 and DGB129 (FIG. 9G, H)): significantly enhanced; reactivity of DGB129 clone to drug-treated THP-1 cells (MR1T cell clones [1]): reacted
3 | C[C@@H](O)[C@H](NC(=O)Nc1ncnc2c1ncn2[C@@H]1O[C@H](CO)[C@@H](O)[C@H]1O)C(=O)O [Cmpd 5, N6-threonylcarbamoyladenosine] | YES | YES |  | Reactive T cells isolated (MR1T cell clones [2]): YES
4 | CC(C)=CCNc1ncnc2c1ncn2[C@@H]1O[C@H](CO)C(O)C1O (stereo partly drawn) [Cmpd 6, N6-isopent-2-enyladenosine] | YES | YES |  | Reactive T cells isolated (MR1T cell clones [2]): YES
5 | C[C@@H](O)[C@H](NC(=O)N(C)c1ncnc2c1ncn2[C@@H]1O[C@H](CO)[C@@H](O)[C@H]1O)C(=O)O [Cmpd 10, N6-methyl-N6-threonylcarbamoyladenosine] | YES | YES |  | Reactive T cells isolated (MR1T cell clones [2]): YES
6 | CO[C@@H]1[C@H](O)[C@@H](CO)O[C@H]1n1cnc2c(=O)[nH]c(N)nc21 [Cmpd 18, 2′-O-methylguanosine] | YES | YES |  | 
7 | CN(C)c1nc2c(ncn2[C@@H]2O[C@H](CO)[C@@H](O)[C@H]2O)c(=O)[nH]1 [Cmpd 19, N2,N2-dimethylguanosine] | YES | YES |  | Reactive T cells isolated (MR1T cell clones [2]): YES
8 | CO[C@@H]1[C@H](O)[C@@H](CO)O[C@H]1n1ccc(N)nc1=O [Cmpd 29, 2′-O-methylcytidine] | YES | YES |  | 
9 | Cn1c(=O)ccn([C@@H]2O[C@H](CO)[C@@H](O)[C@H]2O)c1=O [Cmpd 30, 3-methyluridine] | YES | YES |  | Reactive T cells isolated (MR1T cell clones [2]): YES
10 | Cc1cn([C@@H]2O[C@H](CO)[C@@H](O)[C@H]2O)c(=O)[nH]c1=O [Cmpd 31, 5-methyluridine] | YES | YES |  | 
11 | CO[C@@H]1[C@H](O)[C@@H](CO)O[C@H]1n1ccc(=O)n(C)c1=O [Cmpd 32, 3,2′-O-dimethyluridine] | YES | YES |  | 
12 | Nc1nc2c(c(CN[C@H]3C=C[C@H](O)[C@@H]3O)cn2[C@@H]2O[C@H](CO)[C@@H](O)[C@H]2O)c(=O)[nH]1 [Cmpd 33, Queuosine] | YES | YES |  | 
13 | COC(=O)N[C@@H](CCc1c(C)nc2n(C)c3c(ncn3[C@@H]3O[C@H](CO)[C@@H](O)[C@H]3O)c(=O)n12)C(=O)OC [Cmpd 34, Wybutosine] | YES | YES |  | 
14 | CNc1ncnc2c1ncn2[C@@H]1O[C@H](CO)[C@@H](O)[C@H]1O [Cmpd 42, N6-methyladenosine] | YES | YES |  | 
15 | Cc1ncnc2nc[nH]c12 [Cmpd 43, 6-Methylpurine] |  | YES |  | MRI downmodulation [3]: YES
16 | CN(C)c1ncnc2nc[nH]c12 [Cmpd 44, 6-(Dimethylamino)purine] | YES | YES |  | 
17 | CC(C)=CCNc1ncnc2[nH]cnc12 [Cmpd 45, N6-(Δ2-Isopent-2-enyl) adenine] |  | YES |  | MRI downmodulation [3]: YES
18 | O=c1c(-c2ccc(O)cc2)coc2cc(O[C@@H]3O[C@H](CO)[C@@H](O)[C@H](O)[C@H]3O)ccc12 [Daidzin] |  |  |  | response of MCA2B9 MR1T clone (IFN-γ) (MR1T cell clones [1]; THP-1 cells incubated 18 h with drug (FIG. 7a, b)): increase the response; T cell response in MR1T cell clones (MR1T cell clones [1]): induced a strong T cell response
19 | O=c1oc2c(O)c(O)cc3c(=O)oc4c(O)c(O)cc1c4c23 [Ellagic acid, ellagic acid] |  |  |  | stimulation of QY1A16 MR1T clone (IFN-γ) (MR1T cell clones [1]; THP-1 cells incubated 18 h with drug (FIG. 7e)): induces the stimulation; T cell response in MR1T cell clones (MR1T cell clones [1]): induced a strong T cell response
20 | N[C@@H](CCC(=O)N[C@@H](CS)C(=O)NCC(=O)O)C(=O)O [GSH, L-glutathione reduced] |  |  | significantly less IFN-γ production | 
21 | Cc1onc(C(=O)N2CCN(C(c3ccc(Cl)cc3)c3ccc(Cl)cc3)CC2)c1[N+](=O)[O-] [ML-210] |  |  | significantly increased MR1T-cell stimulatory activity | 
22 | COc1c(C)c2c(c(O)c1C/C=C(\C)CCC(=O)O)C(=O)OC2 [Mycophenolic acid] |  |  |  | stimulation of TC5A87 MR1T clone (IFN-γ) (MR1T cell clones [1]): induces the stimulation; T cell response in MR1T cell clones (MR1T cell clones [1]): induced a strong stimulation; reactivity of DGB129 clone to drug-treated THP-1 cells (MR1T cell clones [1]): reacted
23 | CC(=O)N[C@@H](CS)C(=O)O [N-acetylcysteine] |  |  | significantly less IFN-γ production | 
24 | CC1(C)CC[C@]2(C(=O)O)CC[C@]3(C)C(=CC[C@@H]4[C@@]5(C)CC[C@H](O)C(C)(C)[C@@H]5CC[C@]43C)[C@@H]2C1 [Oleanoic acid, oleanoic acid] |  |  |  | stimulation of TC5A87 MR1T clone (IFN-γ) (MR1T cell clones [1]): induces the stimulation; T cell response in MR1T cell clones (MR1T cell clones [1]): induced a strong T cell response
25 | COC(=O)c1ccc([C@H]2c3[nH]c4ccccc4c3C[C@H](C(=O)OC)N2C(=O)CCl)cc1 [RSL3, 1S,3R-RSL3] |  |  | significantly increased MR1T-cell stimulatory activity | 
26 | N=C(N)NN [aminoguanidine, aminoguanidine hemisulfate salt] |  |  | significant inhibition of IFN-γ production | MAIT cell activation (MAIT clone MRC25): no effect on MAIT cell activation
27 | COc1cc(C(C)=O)ccc1O [apocynin] |  |  | effective with one T-cell clone | 
28 | CCCCS(=N)(=O)CCC(N)C(=O)O (stereo not drawn) [buthionine sulfoximine] |  |  | significant increase | 
29 | NNc1nncc2ccccc12 [hydralazine, hydralazine hydrochloride] |  |  | significant inhibition of IFN-γ production | MAIT cell activation (MAIT clone MRC25): no effect on MAIT cell activation
30 | O=C(O)CC(S)C(=O)O (stereo not drawn) [mercaptosuccinic acid] |  |  | significantly increased MR1T-cell stimulatory activity | 
